Assay results: US20120295907A1, “INSECTICIDAL COMPOUNDS” (SYNGENTA CROP PROTECTION, LLC, priority 2009, published 2012)
Where two headings read alike, the source gives them in different places.

Legend:
Assay type in all cases: in vivo
Heliothis virescens = Heliothis virescens (Tobacco Budworm) egg test on artificial diet; details: 96 h, 200 ppm (concentration in well 18 ppm), eggs 0-24 h old on artificial diet, 4 days, egg mortality, larval mortality, growth regulation
Plutella xylostella = Plutella xylostella (Diamond Back Moth) artificial diet MTP test; details: 144 h, 200 ppm (concentration in well 18 ppm), L2 larvae, 6 days, larval mortality, growth regulation
Diabrotica balteata = Diabrotica balteata (Corn Root Worm) artificial diet MTP test; details: 120 h, 200 ppm (concentration in well 18 ppm), L2 larvae, 5 days, larval mortality, growth regulation
Tetranychus urticae = Tetranychus urticae (Two-Spotted Spider Mite) bean leaf disc spray test; details: foliar, 192 h, read-out: control of Tetranychus urticae
Spodoptera littoralis = Spodoptera littoralis (Egyptian Cotton Leafworm) cotton leaf disc spray test; details: foliar, 72 h, 200 ppm spray on cotton leaf discs, L1 larvae, mortality, feeding behavior, growth regulation 3 DAT
Thrips tabaci = Thrips tabaci (Onion Thrips) sunflower leaf disc spray test; details: foliar, 168 h, 200 ppm spray on sunflower leaf discs, population of mixed ages, 7 days, mortality
[1] = 200 ppm spray on bean leaf discs, mite populations of mixed ages, 8 days, egg, larval and adult mortality

Measured: pest or weed control at 200 ppm

CCc1cc(C(F)(C(F)(F)F)C(F)(F)F)cc(C)c1NC(=O)c1cccc(NC(=O)c2c(F)cc(C#N)cc2F)c1OC [J2]
≥ 80%: Heliothis virescens | Plutella xylostella | Diabrotica balteata | Tetranychus urticae; [1]

COc1c(NC(=O)c2ccco2)cccc1C(=O)Nc1c(Cl)cc(C(F)(C(F)(F)F)C(F)(F)C(F)(F)F)cc1Cl (stereo not shown) [C12]
≥ 80%: Spodoptera littoralis | Heliothis virescens | Plutella xylostella | Diabrotica balteata | Tetranychus urticae; [1]

COc1c(NC(=O)c2ccc(C#N)cc2Cl)cccc1C(=O)Nc1c(Cl)cc(C(F)(C(F)(F)F)C(F)(F)C(F)(F)F)cc1Br (stereo not shown) [B198]
≥ 80%: Spodoptera littoralis | Heliothis virescens | Plutella xylostella | Tetranychus urticae; [1]

COc1c(NC(=O)c2ccc([N+](=O)[O-])cc2C)cccc1C(=O)Nc1c(Cl)cc(C(F)(C(F)(F)F)C(F)(F)C(F)(F)F)cc1Br (stereo not shown) [B196]
≥ 80%: Spodoptera littoralis | Plutella xylostella | Tetranychus urticae; [1]

COc1c(NC(=O)c2cccc([N+](=O)[O-])c2)cccc1C(=O)Nc1c(Cl)cc(C(F)(C(F)(F)F)C(F)(F)C(F)(F)F)cc1Br (stereo not shown) [B193]
≥ 80%: Spodoptera littoralis | Heliothis virescens | Plutella xylostella | Tetranychus urticae; [1]

COc1c(NC(=O)c2sc(C(F)(F)F)nc2C)cccc1C(=O)Nc1c(Cl)cc(C(F)(C(F)(F)F)C(F)(F)C(F)(F)F)cc1Br (stereo not shown) [B104]
≥ 80%: Spodoptera littoralis | Heliothis virescens | Plutella xylostella | Tetranychus urticae; [1]

COc1c(NC(=O)c2cccc([N+](=O)[O-])c2C)cccc1C(=O)Nc1c(Cl)cc(C(F)(C(F)(F)F)C(F)(F)C(F)(F)F)cc1Br (stereo not shown) [B69]
≥ 80%: Spodoptera littoralis | Heliothis virescens | Plutella xylostella | Diabrotica balteata | Tetranychus urticae; [1]

COc1c(NC(=O)c2ccc(F)cc2C)cccc1C(=O)Nc1c(C)cc(C(F)(C(F)(F)F)C(F)(F)C(F)(F)F)cc1C (stereo not shown) [F27]
≥ 80%: Spodoptera littoralis | Heliothis virescens | Plutella xylostella | Diabrotica balteata | Tetranychus urticae; [1]

COc1c(NC(=O)c2ccc(Br)cc2C)cccc1C(=O)Nc1c(Cl)cc(C(F)(C(F)(F)F)C(F)(F)C(F)(F)F)cc1Br (stereo not shown) [B138]
≥ 80%: Spodoptera littoralis | Heliothis virescens | Plutella xylostella | Tetranychus urticae; [1]

COc1c(NC(=O)c2ccc(F)cc2F)cccc1C(=O)Nc1c(Cl)cc(C(F)(C(F)(F)F)C(F)(F)C(F)(F)F)cc1Br (stereo not shown) [B23]
≥ 80%: Spodoptera littoralis | Heliothis virescens | Plutella xylostella | Tetranychus urticae; [1]

COc1c(NC(=O)c2ccc([N+](=O)[O-])cc2Cl)cccc1C(=O)Nc1c(Cl)cc(C(F)(C(F)(F)F)C(F)(F)C(F)(F)F)cc1Br (stereo not shown) [B11]
≥ 80%: Spodoptera littoralis | Heliothis virescens | Plutella xylostella | Tetranychus urticae; [1]

COc1c(NC(=O)c2ccc([N+](=O)[O-])cc2Cl)cccc1C(=O)Nc1c(C)cc(C(F)(C(F)(F)F)C(F)(F)C(F)(F)F)cc1C (stereo not shown) [F28]
≥ 80%: Spodoptera littoralis | Heliothis virescens | Diabrotica balteata | Tetranychus urticae; [1]

COc1c(NC(=O)c2ccc(OC(F)(F)F)cc2)cccc1C(=O)Nc1c(Cl)cc(C(F)(C(F)(F)F)C(F)(F)C(F)(F)F)cc1Br (stereo not shown) [B13]
≥ 80%: Spodoptera littoralis | Heliothis virescens | Plutella xylostella | Tetranychus urticae; [1]

COc1c(NC(=O)c2ccc(OC(F)(F)F)cc2)cccc1C(=O)Nc1c(C)cc(C(F)(C(F)(F)F)C(F)(F)C(F)(F)F)cc1C (stereo not shown) [F5]
≥ 80%: Spodoptera littoralis | Heliothis virescens | Plutella xylostella | Tetranychus urticae; [1]

COc1c(NC(=O)c2ccc([N+](=O)[O-])c([N+](=O)[O-])c2)cccc1C(=O)Nc1c(Cl)cc(C(F)(C(F)(F)F)C(F)(F)C(F)(F)F)cc1Br (stereo not shown) [B195]
≥ 80%: Spodoptera littoralis | Heliothis virescens | Plutella xylostella | Tetranychus urticae

CCc1cc(C(F)(C(F)(F)F)C(F)(F)C(F)(F)F)cc(C)c1NC(=O)c1cccc(NC(=O)c2ccccc2Cl)c1OC (stereo not shown) [A9]
≥ 80%: Spodoptera littoralis | Heliothis virescens | Plutella xylostella | Diabrotica balteata | Thrips tabaci

COc1c(NC(=O)c2cccc(F)c2F)cccc1C(=O)Nc1c(C)cc(C(F)(C(F)(F)F)C(F)(F)C(F)(F)F)cc1C (stereo not shown) [F8]
≥ 80%: Spodoptera littoralis | Heliothis virescens | Plutella xylostella | Diabrotica balteata | Thrips tabaci

COc1c(NC(=O)c2ccc(Br)o2)cccc1C(=O)Nc1c(Cl)cc(C(F)(C(F)(F)F)C(F)(F)C(F)(F)F)cc1Br (stereo not shown) [B52]
≥ 80%: Spodoptera littoralis | Heliothis virescens | Plutella xylostella | Diabrotica balteata | Thrips tabaci

COc1c(NC(=O)c2ccc(Br)c(OC)c2C)cccc1C(=O)Nc1c(Cl)cc(C(F)(C(F)(F)F)C(F)(F)C(F)(F)F)cc1Br (stereo not shown) [B139]
≥ 80%: Spodoptera littoralis | Heliothis virescens | Plutella xylostella | Tetranychus urticae; [1]

COc1c(NC(=O)c2ccccc2C(F)(F)F)cccc1C(=O)Nc1c(Cl)cc(C(F)(C(F)(F)F)C(F)(F)C(F)(F)F)cc1Br (stereo not shown) [B20]
≥ 80%: Spodoptera littoralis | Heliothis virescens | Plutella xylostella | Diabrotica balteata | Thrips tabaci

COc1c(NC(=O)c2cccc(C)c2[N+](=O)[O-])cccc1C(=O)Nc1c(Cl)cc(C(F)(C(F)(F)F)C(F)(F)C(F)(F)F)cc1Br (stereo not shown) [B87]
≥ 80%: Spodoptera littoralis | Heliothis virescens | Plutella xylostella | Diabrotica balteata | Thrips tabaci
